Data on one compound can be found in patent US8809386B2, “Use of dynamin ring stabilizers” (Children's Medical Research Institute, priority 2009, dated 2014).

Test [1] relates to truncated dynamin I construct known as GG2. The experiment in a line: Basal GTPase activity of assembly-incompetent dynamin construct GG2. It is filed as biochemical. The conditions noted are these: FIG. 5. An excerpt: FIG. 5 is a graph showing the basal GTPase activity of the truncated dynamin I construct known as GG2, containing only the GTPase domain linked to a small part of the GED domain (Chappie et al 2009). Unlike full length dynamin this construct is known to be unable to self-assemble or to form rings. Bis-T-22 and -23 and imminodyn-22 have no effect on the basal activity of this assembly-incompetent construct.
To verify that ring stabilizers require dynamin oligomerisation, a recombinant form of dynamin, called GG-2, which is dimeric yet is unable to self-associate into higher order oligomers (Chappie et al 2009) was tested. Ring stabilizers are unable to stimulate the basal activity of such constructs (FIG. 5).

Another test relates to dynamin I. The experiment in a line: Dynamin self-assembly assay, high speed centrifugation at decreasing NaCl. It is filed as biochemical. The conditions noted are these: dynamin 520 nM. As for the experimental part:
This dynamin self-assembly assay was performed with native dynamin ([…]) using the Hepes column buffer described above in Example 1.1, (with the addition of 1% DMSO as described above). Bis-T effects were measured by pre-incubating the dynamin with the indicated Bis-T concentrations for 10 min at room temperature (22° C.). NaCl concentrations were varied from a stock in 200 mM NaCl. After the incubation the tubes were transferred to a TLA120.2 rotor (Beckman) and centrifuged in a tabletop ultracentrifuge (Optima TLX, Beckman) at 100,000 g for 20 min, and the supernatants (S) and pellets (P) were collected, precipitated with trichloracetic acid, solubilised in SDS sample buffer and separated on SDS gels.
A block in ring disassembly should be manifested as an accumulation of rings in vitro. Dynamin self-assembles into rings in the absence of any cofactors when the buffer ionic strength is decreased (Song et al. 2004). To determine whether Bis-T compounds regulate dynamin-dynamin interactions a well-established method of high speed centrifugation in decreasing amounts of NaCl to collect rings in the pellet (Warnock et al. 1996) was used. Higher concentrations of dynamin (520 nM) and dynamin was visualized by Coomassie staining on SDS gels (FIG. 6). As reported by others, dynamin is in the supernatant at ≧40 mM NaCl, but self-assembled at ≦20 mM NaCl and is found in the pellet. […]

The subject of test [2] is Human lymphoblasts (which express dynamin II). The experiment in a line: EM analysis of clathrin coated pits in human lymphoblasts. It is filed as cell-based. The note with it: 30 min (Bis-T-22 100 μM), FIG. 10A. The source says: When vesicles are endocytosed via the clathrin-dependent pathway, they are well known to be internalised as omega shaped figures close to the plasma membrane with partially constricted and short necks. These can be detected by transmission electron microscopy (EM) at a low frequency.

The subject of a further test is rat brain synaptosomes. In words: EM analysis of endocytic pits in KCl-depolarised rat brain synaptosomes. The conditions noted are these: 30 min (100 μM), depolarised with KCl, FIG. 10B. It is filed as cell-based. The source says:
When vesicles are endocytosed via the clathrin-dependent pathway, they are well known to be internalised as omega shaped figures close to the plasma membrane with partially constricted and short necks. These can be detected by transmission electron microscopy (EM) at a low frequency. […] In contrast to these observations, a dynamin ring stabilizer causes accumulation of clathrin coated pits in cells with two distinctive features: the vesicle necks are highly elongated and are encircled by electron dense rings. […] No rings or trapped vesicles were detected when the synaptosomes were unstimulated (FIG. 10B top). This mimics the in vitro observations on purified dynamin I described earlier which forms single rings (FIG. 9).

The target of a further test is T1, full length dynamin I (UniProt Q05193).
T1 construct: rows headed: basal rate of GTP hydrolysis of dynamin
T1 sequence (Q05193 1-864): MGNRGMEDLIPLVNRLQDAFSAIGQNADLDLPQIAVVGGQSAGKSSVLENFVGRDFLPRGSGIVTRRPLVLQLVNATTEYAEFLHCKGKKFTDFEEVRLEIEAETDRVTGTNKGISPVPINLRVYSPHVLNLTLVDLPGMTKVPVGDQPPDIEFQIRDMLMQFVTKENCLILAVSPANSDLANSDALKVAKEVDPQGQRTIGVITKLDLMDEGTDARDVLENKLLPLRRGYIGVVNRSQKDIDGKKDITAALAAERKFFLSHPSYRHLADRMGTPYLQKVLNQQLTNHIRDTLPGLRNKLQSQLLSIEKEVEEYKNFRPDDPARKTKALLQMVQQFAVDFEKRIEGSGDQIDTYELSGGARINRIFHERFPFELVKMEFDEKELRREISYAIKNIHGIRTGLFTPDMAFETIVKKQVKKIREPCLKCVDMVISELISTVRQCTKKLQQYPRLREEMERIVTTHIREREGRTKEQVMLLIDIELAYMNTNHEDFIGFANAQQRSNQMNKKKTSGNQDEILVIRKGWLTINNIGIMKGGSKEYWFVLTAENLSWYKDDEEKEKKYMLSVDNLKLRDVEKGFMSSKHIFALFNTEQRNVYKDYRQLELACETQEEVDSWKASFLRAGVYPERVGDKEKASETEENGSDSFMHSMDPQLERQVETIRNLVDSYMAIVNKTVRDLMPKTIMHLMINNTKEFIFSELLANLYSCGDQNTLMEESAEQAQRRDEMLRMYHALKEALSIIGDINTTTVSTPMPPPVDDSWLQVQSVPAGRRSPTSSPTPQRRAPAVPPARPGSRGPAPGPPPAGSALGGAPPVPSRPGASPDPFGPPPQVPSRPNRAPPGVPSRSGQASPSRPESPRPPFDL
In words: Basal dynamin GTPase activity in the absence of PS liposomes or other template (ring stabilizer activity). It is filed as biochemical, sheep. The conditions noted are these: 0.2 μM dyn1, 7 μM compound, 10 μM Gsn-F-actin complexes, FIG. 18.

`N#C/C(=C\c1ccc(O)c(O)c1)C(=O)NCCCNC(=O)/C(C#N)=C/c1ccc(O)c(O)c1` [Bis-T-22, 2-cyano-N-{3-[2-cyano-3-(3,4-dihydroxyphenyl)-acryloylamino]-propyl}-3-(3,4-dihydroxyphenyl)-acrylamide]: in test [1], the “effect on basal GTPase activity of GG2” value was “no effect”. Moreover, the “dynamin ring assembly (dynamin in pellet)” value with dynamin I (100 μM, intermediate salt concentrations) is reported as “increased ring assembly”; in the test with dynamin I (300 μM, fixed 40 mM NaCl) it was “promoted all dynamin to form rings”. Further, in test [2], the “clathrin coated pits by EM” value is recorded as “massive accumulation in all cells of clathrin coated pits with highly elongated necks”. The “trapped endocytic pits by EM” value in the test with rat brain synaptosomes is “trapped endocytic pits were detected that were encircled by a single electron dense ring”. In addition, the “basal rate of GTP hydrolysis of dynamin” value on full length dynamin I is reported as “stimulates dynamin's basal rate of GTP hydrolysis”.
